Measured values as given in patent US9734283B2, “Genomic features associated with epigenetic control regions and transgenerational inheritance of epimutations” (priority 2011, dated 2017).
“Also recorded” adds a separate entry of the source.

Legend:
[1] = Serum hormone levels, F3 generation; format: in vivo, rat; settings: F3 generation males
Description: Both female and male rats of F1, F2 and F3 generation at 90-120 days of age were euthanized by CO2 inhalation and cervical dislocation for dissection, collection and examination of tissues including testis, epididymis, and ovary. Body and tissue weights were measured at dissections. Blood samples were collected, allowed to clot, centrifuged and serum samples stored for hormone assays. Tissues were fixed in Bouins solution (Sigma) and 70% ethanol, then processed for paraffin embedding by standard procedures for histopathology examination. Five-micrometer sections were made and were either unstained or stained with H & E stain.

[2] = test system: Harlan Sprague Dawley rats; test: Onset of puberty in F1-F3 generation after F0 gestational exposure; format: in vivo, rat
Description: At proestrus as determined by daily vaginal smears, the female rats, (90 days) were pair-mated with male rats (120 days). On the next day, the females were separated and their vaginal smears were examined microscopically and if they were sperm-positive (day 0) the rats were tentatively considered pregnant and then weighed with a digital animal weighing balance to monitor increases in body weight. Vaginal smears were continued for monitoring diestrus status in these rats until day 7. […] These pregnant rats were then given daily intraperitoneal injections of any one of the following single chemicals or mixtures with an equal volume of sesame oil (Sigma) on days E-8 through E-14 of gestation. Treatment groups were Control, Pesticide (Permethrin+DEET), Plastics (Bisphenol-A, DBP and DEHP), Dioxin (TCDD), and Jet Fuel (JP8 hydrocarbon). The pregnant female rats treated with various mixtures were designated as the F0 generation. When there was a drop in the litter size and the sex ratio of pups in F1 generation of Plastics group, another treatment group was included with only half the dose of Bisphenol-A, DBP and DEHP and this group was designated ‘Low Dose Plastics’ group.
The offspring of the F0 generation were the F1 generation. Likewise F2 and F3 generation offspring were generated. These rats were weaned from their mothers at 21 days of age. At weaning, the following weaning traits were measured; litter size, sex ratio, weaning weight (in grams), and anogenital index (AGI). […] Weaning weights of rats were measured by a digital balance. AGI was computed as the AGD in mm (from the bottom of the anal opening to the top of the genital opening) per gram of body weight at weaning. Starting at the age of 30 days for females and 35 days for males, puberty checks were performed. These checks were performed on a daily basis until puberty in each rat was confirmed. Onset of puberty for females was indicated by a clear vaginal opening, and for males it was indicated when the glans penis was able to fully extend free of the preputial fold (balano-preputial separation).

[3] = test system: sperm promoter epigenome (DNA methylation); test: MeDIP-Chip analysis of F3 generation sperm promoter DNA methylation; format: in vivo, rat; settings: F3 generation sperm vs vehicle control; p<10^-5
Description: Sperm heads were separated from tails through sonication following previously described protocol (without protease inhibitors) and then purified using a series of washes and centrifugations from a total of nine F3 generation rats per treatment lineage that were 120 days of age. DNA extraction on the purified sperm heads was performed as previously described. Equal concentrations of DNA from individual sperm samples were then used to produce pools of DNA material. Three DNA pools were produced in total per treatment, which contained the same amount of sperm DNA from three animals. Therefore a total of 45 animals were used for building three DNA pools per treatment for the 4 experimental groups plus controls. These DNA pools were then used for methylated DNA immunoprecipitation (MeDIP). MeDIP was performed as follows: 6 μg of genomic DNA was subjected to series of three 20 pulse sonications at 20% amplitude and the appropriate fragment size ([…]) was verified through 2% agarose gels; the sonicated genomic DNA was resuspended in 350 ul TE and denaturated for 10 min at 95° C. and then immediately placed on ice for 5 min; 100 ul of 5×IP buffer (50 mM Na-phosphate pH7, 700 mM NaCl, 0.25% Triton X-100) was added to the sonicated and denatured DNA. […]

[4] = test system: caudal epididymal sperm; test: Epididymal sperm motility and concentration analyses; format: in vivo, mouse; settings: primarily in the F1 generation males
Description: The sperm motility was determined using caudal epididymal sperm. The epididymis was dissected free of connective tissue and a small cut made to the cauda. The tissue was placed in 2 ml F12 culture medium containing 0.1% BSA for 10 minutes at 37° C. Fifty microliters was placed on a warm slide and gently cover-slipped. The specimen was immediately examined using phase contrast microscopy with 200×magnification. The sperm motility assays examined rapid progressive, slow progressive and non-progressive motility according to WHO category.^51 The ratio of motile sperm to the total number of sperm, including immotile sperm, was calculated. Approximately 50-100 sperm were counted per microscopic field. The procedure was repeated at least twice with a new specimen from the same epididymis. Epididymal sperm count was determined using the same epididymis according to a previously described method with some modifications.^25, 52 Briefly, the epididymis that was placed in the 2 ml of culture medium was minced. The tissue pieces were stored at 4° C. for 48 hours to immobilize the sperm. Three independent sperm samples were counted using a hemocytometer. The counts were averaged and used as a replicate in statistical analysis. The control and vinclozolin generation analysis and the control and flutamide generation analysis for an individual experiment were done at the same time. All analyses were done blinded, such that different individuals were used for collection and counting.

[5] = test system: 129 and CD-1 mice; test: Litter size, sex ratio, body and tissue weights (toxicity); format: in vivo, mouse; settings: transient embryonic exposure
Description: (§1) The experimental design involved exposing gestating female inbred 129 strain and outbred CD-1 strain mice to daily intraperitoneal (IP) injections of vehicle (DMSO) (control) or vinclozolin at two doses, 100 mg/kg/day (V1) or 200 mg/kg/day (V2), between embryonic day 7-13 of gestation. In addition, a comparison was used with flutamide IP injections at a 20/mg/kg/day dose. The F1 generation males and females from different litters were bred to generate the F2 generation animals and F2 generation males and females from different litters were bred to generate the F3 generation animals, see Methods below. No sibling or cousin breedings occurred to avoid any inbreeding artifacts. Selected F1, F2 and F3 generation animals from postnatal 90 (P90) or 300 (P300) days of age were analyzed for testis, sperm and other pathologies as previously described.^11, 20, 21
Timed pregnant inbred 129 mice were given intraperitoneal injections with vinclozolin (100 mg/kg·day, 99% pure; ChemService, West Chester, Pa.), flutamide (20 mg/kg·day, Sigma, St. Louis, Mo.) or DMSO in sesame oil (vehicle) as controls, while timed pregnant outbred CD-1 mice were given intraperitoneal injections (IP) with vinclozolin doses: 100 mg/kg·day (V1) or 200 mg/kg·day (V2) or DMSO in sesame oil as controls.^21 Mice were given injections from embryonic day (E) E7-E13, with plug date equal to day 0. Controls were injected with vehicle (DMSO) dose and were matched with vinclozolin or flutamide treatment animals within the same mouse strain at the time of injection and were analyzed together throughout all three generations. The number of treated gestating females used were: for mouse 129 strain (3 controls and 4 vinclozolin treated); for mouse 129 strain flutamide 20 mg/kg/day dose (3 controls and 3 flutamide treated); and for mouse CD-1 strain (4 control and 3 vinclozolin treated (100 mg/kg/day (V1), 3 vinclozolin 200 mg/kg/day (V2)). F1 postnatal (P)P90 males and females from different litters of control, vinclozolin and flutamide treatment groups were bred to generate the F2 generation. F2 generation mice were bred to generate the F3 generation. Breedings were carefully monitored to eliminate any sibling or cousin breeding to remove potential phenotypes as a result of inbreeding. Male mice were collected and analyzed between P60-P90 (P90) for all generations and treatment groups. The number of P90 males collected for replicates for the mouse 129 strain vinclozolin treatment group (i.e. n value) were: for F1 (8 control, 11 vinclozolin); for F2 (11 control, 22 vinclozolin); and for F3 (11 control, 11 vinclozolin). […]

[6] = test system: testicular spermatogenic cells; test: Testicular spermatogenic cell apoptosis (TUNEL assay), F1-F3 lineage after F0 gestational exposure; format: in vivo, mouse; settings: 129 strain, flutamide 20 mg/kg/day IP to F0 E7-E13; any age or generation analyzed; vs control
Description: as §1
Timed pregnant inbred 129 mice were given intraperitoneal injections with vinclozolin (100 mg/kg·day, 99% pure; ChemService, West Chester, Pa.), flutamide (20 mg/kg·day, Sigma, St. Louis, Mo.) or DMSO in sesame oil (vehicle) as controls, while timed pregnant outbred CD-1 mice were given intraperitoneal injections (IP) with vinclozolin doses: 100 mg/kg·day (V1) or 200 mg/kg·day (V2) or DMSO in sesame oil as controls.^21 Mice were given injections from embryonic day (E) E7-E13, with plug date equal to day 0. Controls were injected with vehicle (DMSO) dose and were matched with vinclozolin or flutamide treatment animals within the same mouse strain at the time of injection and were analyzed together throughout all three generations. […] Male mice were collected and analyzed between P60-P90 (P90) for all generations and treatment groups. […]

[7] = transgenerational F3 generation

Compound | testosterone levels [1] | onset of puberty for females ([2]; F2 generation) | onset of puberty in males ([2]; F2 generation) | onset of puberty in females [2, 7] | onset of puberty in males [2, 7] | number of DMR [3] | mean percentage of motile epididymal sperm [4] | body weight, testis weight index, or kidney weight index ([5]; F1-F3) | litter size or male/female sex ratio ([5]; all generations analyzed) | apoptotic germ cells in the testis [6]
Clc1cc2c(cc1Cl)Oc1cc(Cl)c(Cl)cc1O2 [dioxin, 2,3,7,8-tetrachlorodibenzo-p-dioxin] | reduction | early onset | early onset | early onset; also recorded: advanced | no effect | 50 |  |  |  | 
CC(C)C(=O)Nc1ccc([N+](=O)[O-])c(C(F)(F)F)c1 [flutamide] |  |  |  |  |  |  | reduction | no consistent transgenerational differences | no consistent transgenerational effects | no differences
